Where two headings read alike, the source gives them in different places. No end group written: not given here.
Tests used:
SBV [1] = settings: 48 h
A-72 cells = experiment: MTT cytotoxicity, A-72 cells; type: cell-based, canine; settings: 24 h peptide treatment, 3-200 µM, 37 °C, absorbance 570 nm, nonlinear regression, at least three independent experiments
Experimental: (§1) BHK-21, U-87 MG, A-72, and CRFK cells were seeded in 96-well plates at an initial density of 2 × 10^4 cells per well and incubated for 24 h at 37 °C. Then, serial dilutions of peptides ranging from 3 to 200 µM were added to the cell monolayer and incubated for 24 h at 37 °C. Cytotoxicity was evaluated by adding 5 μL of methylthiazolyldiphenyl-tetrazolium bromide (MTT; cod. M2003, Sigma-Aldrich, St. Louis, MO, USA) to each well. After 4 h of incubation, the plate was emptied, and formazan crystals were solubilized with dimethyl sulfoxide (DMSO; 100%). Cell viability was calculated by measuring absorbance at 570 nm using a microplate reader. The negative control (CTRL−, toxicity control) consisted of cells treated with DMSO, while the positive control (CTRL+, viable cells) included untreated cells.
(§2) All tests were performed in triplicate and expressed as mean ± standard deviation (SD). Graphs and statistical analysis were generated using GraphPad Prism version 9.5.1 for macOS (GraphPad Software, San Diego, CA, USA, www.graphpad.com, accessed on 5 February 2025). The 50% cytotoxic concentration (CC50) and the 50% inhibitory concentration (IC50) were calculated by nonlinear regression analysis based on dose–response curves generated from at least three independent experiments.

SBV [2] = settings: 1 h
[3] = test system: BHK-21, A-72, CRFK, and U-87 MG cells; experiment: MTT cytotoxicity, statements for all tested cell lines; type: cell-based; settings: 24 h, concentrations of 50 μM and below
Experimental: as §1

CRFK cells = experiment: MTT cytotoxicity, CRFK cells; type: cell-based, feline; settings: 24 h peptide treatment, 3-200 µM, 37 °C, absorbance 570 nm, nonlinear regression, at least three independent experiments
Experimental: as §1, §2

SBV [4] = settings: 48 h; remark: listed apart in the source
U-87 MG cells = experiment: MTT cytotoxicity, U-87 MG cells; type: cell-based, human; settings: 24 h peptide treatment, 3-200 µM, 37 °C, absorbance 570 nm, nonlinear regression, at least three independent experiments
Experimental: as §1, §2

BHK-21 cells = experiment: MTT cytotoxicity, BHK-21 cells; type: cell-based, hamster; settings: 24 h peptide treatment, 3-200 µM, 37 °C, absorbance 570 nm, nonlinear regression, at least three independent experiments
Experimental: as §1, §2

TOSV [5] = settings: 24 h
TOSV [6] = settings: 24 h; remark: listed apart in the source
TOSV [7] = settings: 24 h; remark: listed apart in the source

With GILGKLWEGFKSIV-NH2 [pantinin-1] the IC50 (SBV [1]) was 5.8 µM, the CC50 (A-72 cells) was 93.6 µM and the IC50 (SBV [2]) was 12.8 µM. The “Cytotoxicity at 50 μM and below” value [3] was “neither pantinin-1 nor pantinin-2 induced any detectable cytotoxicity”, the CC50 (CRFK cells) was 93.5 µM and the IC50 (SBV [4]) was 6 µM. The CC50 (U-87 MG cells) was 114.3 µM and the CC50 (BHK-21 cells) was 136.6 µM.

Work on IFGAIWKGISSLL-NH2 [pantinin-2] yielded an IC50 (TOSV [5]) of 3 µM, a CC50 (A-72 cells) of 90.7 µM and an IC50 (SBV [2]) of 4.8 µM. The “Cytotoxicity at 50 μM and below” value [3] was “neither pantinin-1 nor pantinin-2 induced any detectable cytotoxicity”, the CC50 (CRFK cells) was 82.2 µM and the IC50 (TOSV [6]) was 3 µM. For the same substance, the CC50 (U-87 MG cells) was 82 µM, the IC50 (TOSV [7]) was 3 µM and the CC50 (BHK-21 cells) was 100.8 µM.

From paper PMC12300298, “Expanding the Antiviral Spectrum of Scorpion-Derived Peptides Against Toscana Virus and Schmallenberg Virus” (Pathogens, 2025)
